Patent US9833466B2, “Treatment of leukemia with histone deacetylase inhibitors” (Acetylon Pharmaceuticals Inc., priority 2014, dated 2017)

Key:
[1] = test system: HDAC1, HDAC2, HDAC3 and HDAC6; assay: HDAC selectivity of the inhibitor panel; assay type: biochemical; conditions: HDAC isoform(s) the inhibitor is selective for
Description: Compounds for testing are diluted in DMSO to 50 fold the final concentration and a ten point three fold dilution series is made. The compounds are diluted in assay buffer (50 mM HEPES, pH 7.4, 100 mM Kill, 0.001% Tween-20, 0.05% BASE, 20 μM TEC) to 6 fold their final concentration. The HDAC enzymes (purchased from BPS Biosciences) are diluted to 1.5 fold their final concentration in assay buffer. The dipeptide substrate and trypsin at 0.05 μM final concentration are diluted in assay buffer at 6 fold their final concentration. The final enzyme concentrations to use in these assays are 3.3 ng/ml (HDAC1), 0.2 ng/ml (HDAC2), 0.08 ng/ml (HDAC3) and 2 ng/ml (HDAC6). The final substrate concentrations to use are 16 μM (HDAC1), 10 μM (HDAC2), 17 μM (HDAC3) and 14 μM (HDAC6). Five μ1 of compound and 20 μl of enzyme are added to wells of a black, opaque 384 well plate in duplicate. Enzyme and compound are incubated together at room temperature for 10 min. Five μ1 of substrate is added to each well, the plate is shaken for 60 seconds and placed into a Victor 2 microliter plate reader. The development of fluorescence is monitored for 60 min. and the linear rate of the reaction is calculated. The IC50 is determined using Graph Pad Prism by a four parameter curve fit.
The following HDAC inhibitors were used to evaluate the relationship between HDAC selectivity and the viability of AML cell lines upon exposure to the HDAC inhibitor: […]

Kasumi-1 = Kasumi-1 cell cycle by propidium iodide staining (sub-G1); assay type: cell-based; conditions: 72 hours, increasing concentrations
Description: HDAC inhibition causing AML cell death (apoptosis) was measured by staining the AML cells with propidium iodide after the cells were exposed to different concentrations of the HDAC inhibitors. Four distinct cell populations, G1, S, G2, and sub-G1, were separated and quantified based on their propidium iodide staining patterns. The sub-G1 cells are those dying or dead cells, and the percentage of this population was a reflection of the tested compound cytotoxicity.

AML1/ETO fusion protein = AML1/ETO fusion protein Western blot in Kasumi-1 cells; assay type: cell-based; conditions: 24 hours
Description: One type of AML has a signature chromosome translocation t(8:21) and therefore expression of a unique fusion protein AML1/ETO. […] In this study, Kasumi-1 cells were exposed to different concentrations of the HDAC inhibitor Compound A, or another HDAC1/2/6 selective inhibitor Compound G (data not shown), for 24 hours. The whole cell lysates were separated by SDS-PAGE (SDS-polyacrylamide gel electrophoresis) and transferred to a membrane (Western blot). The AML1/ETO fusion protein was detected on the membrane using an AML1 specific antibody.

[2] = test system: HL-60, NB4, MV4-11, Kasumi-1, THP-1, and MOLM-13; assay: Single agent activity on viability in AML cell lines; assay type: cell-based; conditions: 72 hours, six AML cell lines
Description: FIGS. 3A-D show the single agent activity on viability in AML cell lines. Briefly, each of the following cell lines: HL-60, THP-1, MV-4-11, Kasumi-1, NB4, and MOLM-13 were exposed to increasing concentrations of either Compound B (FIG. 3A), Compound A (FIG. 3B), Compound E (FIG. 3C), or azacitidine (FIG. 3D) to determine their response to drug treatment. […] The panel of cell lines was also treated with azacitidine to measure their sensitivity.
FIGS. 8A-F show the single agent activity on viability in AML cell lines. […] Viability was calculated as a percentage of control (DMSO treated cells). Growth inhibition curves were generated using GraphPad Prism 6.
FIG. 17. […] (B-D) MV4-11 cells were treated with indicated concentrations of compounds. (B) Surface levels of myeloid differentiation marker CD11b were determined by FACS at 72 h post-treatment. […] (C) Cell cycle was assessed by flow cytometry after incorporation of EdU and staining with Far Red at 72 h post-treatment. The distribution of cells among G0/G1 phase, G2/M phase, S phase and subG1 phase was determined. […] (D) Apoptosis was assessed by flow cytometry via measuring Annexin V binding and cellular permeability to propidium iodide at 96 h post-treatment. The relative fraction of cells that were live, in early apoptosis, in late apoptosis or dead was then determined.

MV4-11 [3] = assay: Surface CD11b by FACS in MV4-11; assay type: cell-based; conditions: single agent, 72 h
Description: (§1) The distribution of cells among G0/G1 phase, G2/M phase, S phase and subG1 phase was determined. […] The relative fraction of cells that were live, in early apoptosis, in late apoptosis, or dead was then determined.
(§2) MV4-11 cells were treated with Compound E or with Compound A or with Compound B as single agent or in combination with azacitidine at indicated doses. FIGS. 12A, 12C, and 12E show surface levels of CD11b determined by FACS at 72 h post-treatment. FIGS. 12B, 12D, and 12F show assessment of apoptosis by FACS (as in, e.g., FIG. 9C) at 96 h post-treatment.
(§3) FIG. 17. […] (A) Indicated AML cell lines were exposed to increasing concentrations of Compound J to confirm their sensitivity to HDAC1/2 inhibition. (B-D) MV4-11 cells were treated with indicated concentrations of compounds. (B) Surface levels of myeloid differentiation marker CD11b were determined by FACS at 72 h post-treatment. […] (C) Cell cycle was assessed by flow cytometry after incorporation of EdU and staining with Far Red at 72 h post-treatment. The distribution of cells among G0/G1 phase, G2/M phase, S phase and subG1 phase was determined. […] (D) Apoptosis was assessed by flow cytometry via measuring Annexin V binding and cellular permeability to propidium iodide at 96 h post-treatment. The relative fraction of cells that were live, in early apoptosis, in late apoptosis or dead was then determined.

MV4-11 [4] = assay: Apoptosis by Annexin V / propidium iodide flow cytometry in MV4-11; assay type: cell-based; conditions: single agent, 96 h
Description: as §1, §2, §3

MV4-11 [5] = assay: Cell cycle by flow cytometry (EdU, Far Red) in MV4-11; assay type: cell-based; conditions: single agent, 72 h
Description: as §1, §3

O=C(NO)c1cnc(NC2(c3ccccc3)CCN(C(=O)Nc3ccccc3)CC2)nc1 [Compound G, N-hydroxy-2-((4-phenyl-1-(phenylcarbamoyl)piperidin-4-yl)amino)pyrimidine-5-carboxamide]
Selectivity [1]: HDAC6 (1/2) | sub-G1 cells (dying or dead cells) (Kasumi-1): Increased amount of sub-G1 cells | amount of AML1/ETO fusion protein (AML1/ETO fusion protein): decrease the amount of this fusion protein in a concentration dependent manner | viability IC50 relative to HDAC selective range [2]: has some inhibitory effects on HDAC1/2 at their IC50 values | percentage of CD11b positive cells (MV4-11 [3]): increased the percentage of CD11b positive cells | apoptosis relative to control cells (MV4-11 [4]): increase in apoptosis relative to control cells | cell cycle arrest (MV4-11 [5]): induced cell cycle arrest
